Source: the kinase profiling compilation of Christmann-Franck et al. (2016)

Experiments:
Experiment in all cases: radiometric filter-binding kinase assay
CSNK2A1 (human) = CSNK2A1 (human) (UniProt P68400)
HIPK2 (human) = HIPK2 (human) (UniProt Q9H2X6)
PAK4 (human) = PAK4 (human) (UniProt O96013)
RPS6KA5 KD1 KD2 (human) = RPS6KA5 KD1 KD2 (human) (UniProt O75582)
NUAK1 (human) = NUAK1 (human) (UniProt O60285)
MAP2K6 (human) = MAP2K6 (human) (UniProt P52564); settings: compound 0.1 µM
[1] = system: AKT1 (human), P31749 [S473D]
IKBKE (human) = IKBKE (human) (UniProt Q14164)
DYRK1A (human) = DYRK1A (human) (UniProt Q13627)
DYRK2 (human) = DYRK2 (human) (UniProt Q92630)
MST4 (human) = MST4 (human) (UniProt Q9P289)
BTK (human) = BTK (human) (UniProt Q06187)
MAPK14 (human) = MAPK14 (human) (UniProt Q16539)
MAPKAPK5 (human) = MAPKAPK5 (human) (UniProt Q8IW41)
NEK6 (human) = NEK6 (human) (UniProt Q9HC98)
MAPK13 (human) = MAPK13 (human) (UniProt O15264)
PAK7 (human) = PAK7 (human) (UniProt Q9P286)
EEF2K (human) = EEF2K (human) (UniProt O00418)
CaMK1 (human) = CaMK1 (human) (UniProt Q14012)
PRKCZ (human) = PRKCZ (human) (UniProt Q05513)
EPHB3 (human) = EPHB3 (human) (UniProt P54753)
MAPK11 (human) = MAPK11 (human) (UniProt Q15759)
LCK (mouse) = settings: accession and sequence are those of the human protein
MARK3 (human) = MARK3 (human) (UniProt P27448)
MARK1 (human) = MARK1 (human) (UniProt Q9P0L2); settings: compound 0.1 µM
EPHB1 (human) = EPHB1 (human) (UniProt P54762); settings: compound 0.1 µM
ERBB4 (human) = ERBB4 (human) (UniProt Q15303)
PAK6 (human) = PAK6 (human) (UniProt Q9NQU5)
HIPK3 (human) = HIPK3 (human) (UniProt Q9H422); settings: compound 0.1 µM
TAOK1 (human) = TAOK1 (human) (UniProt Q7L7X3); settings: compound 0.1 µM
DAPK1 (human) = DAPK1 (human) (UniProt P53355); settings: compound 0.1 µM
ROCK2 (rat) = settings: accession and sequence are those of the human protein
DYRK3 (human) = DYRK3 (human) (UniProt O43781)
EPHA2 (human) = EPHA2 (human) (UniProt P29317)
HIPK1 (human) = HIPK1 (human) (UniProt Q86Z02); settings: compound 0.1 µM
MAP3K9 (human) = MAP3K9 (human) (UniProt P80192)

PAK4 (human), sequence (O96013 whole entry, looked up): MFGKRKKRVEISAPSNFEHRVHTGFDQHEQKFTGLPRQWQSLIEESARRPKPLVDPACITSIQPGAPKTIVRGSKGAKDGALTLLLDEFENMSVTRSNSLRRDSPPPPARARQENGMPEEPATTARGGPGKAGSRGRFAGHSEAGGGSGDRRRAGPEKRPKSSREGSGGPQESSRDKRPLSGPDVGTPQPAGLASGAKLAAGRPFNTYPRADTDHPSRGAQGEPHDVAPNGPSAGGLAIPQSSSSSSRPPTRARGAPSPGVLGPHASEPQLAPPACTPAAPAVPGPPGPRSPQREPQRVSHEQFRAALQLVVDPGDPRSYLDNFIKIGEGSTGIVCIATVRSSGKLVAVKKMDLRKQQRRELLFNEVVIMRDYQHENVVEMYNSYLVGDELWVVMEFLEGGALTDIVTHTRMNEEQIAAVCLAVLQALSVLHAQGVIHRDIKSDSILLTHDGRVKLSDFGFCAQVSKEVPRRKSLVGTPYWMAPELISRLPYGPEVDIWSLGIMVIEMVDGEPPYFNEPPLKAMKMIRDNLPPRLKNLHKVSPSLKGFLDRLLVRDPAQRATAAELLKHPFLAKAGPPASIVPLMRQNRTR
NUAK1 (human), sequence (O60285 whole entry, looked up): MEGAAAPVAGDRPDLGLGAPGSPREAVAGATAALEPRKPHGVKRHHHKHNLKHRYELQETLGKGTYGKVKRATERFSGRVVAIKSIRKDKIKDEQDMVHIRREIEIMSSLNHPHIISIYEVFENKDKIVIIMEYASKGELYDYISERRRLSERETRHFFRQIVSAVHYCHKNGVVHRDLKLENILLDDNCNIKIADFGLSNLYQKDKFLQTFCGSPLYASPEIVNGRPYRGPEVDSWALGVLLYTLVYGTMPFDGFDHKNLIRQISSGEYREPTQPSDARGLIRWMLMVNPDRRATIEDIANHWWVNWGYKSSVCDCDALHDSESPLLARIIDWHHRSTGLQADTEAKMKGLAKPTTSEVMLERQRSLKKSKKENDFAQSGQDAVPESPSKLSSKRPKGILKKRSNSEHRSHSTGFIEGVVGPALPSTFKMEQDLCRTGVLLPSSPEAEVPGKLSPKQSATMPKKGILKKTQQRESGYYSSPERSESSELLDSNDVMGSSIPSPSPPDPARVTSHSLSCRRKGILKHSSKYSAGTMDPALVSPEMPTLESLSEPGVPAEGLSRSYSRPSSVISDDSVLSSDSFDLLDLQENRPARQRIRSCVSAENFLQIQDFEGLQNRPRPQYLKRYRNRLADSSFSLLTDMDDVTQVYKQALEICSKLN
DYRK2 (human), sequence (Q92630 whole entry, looked up): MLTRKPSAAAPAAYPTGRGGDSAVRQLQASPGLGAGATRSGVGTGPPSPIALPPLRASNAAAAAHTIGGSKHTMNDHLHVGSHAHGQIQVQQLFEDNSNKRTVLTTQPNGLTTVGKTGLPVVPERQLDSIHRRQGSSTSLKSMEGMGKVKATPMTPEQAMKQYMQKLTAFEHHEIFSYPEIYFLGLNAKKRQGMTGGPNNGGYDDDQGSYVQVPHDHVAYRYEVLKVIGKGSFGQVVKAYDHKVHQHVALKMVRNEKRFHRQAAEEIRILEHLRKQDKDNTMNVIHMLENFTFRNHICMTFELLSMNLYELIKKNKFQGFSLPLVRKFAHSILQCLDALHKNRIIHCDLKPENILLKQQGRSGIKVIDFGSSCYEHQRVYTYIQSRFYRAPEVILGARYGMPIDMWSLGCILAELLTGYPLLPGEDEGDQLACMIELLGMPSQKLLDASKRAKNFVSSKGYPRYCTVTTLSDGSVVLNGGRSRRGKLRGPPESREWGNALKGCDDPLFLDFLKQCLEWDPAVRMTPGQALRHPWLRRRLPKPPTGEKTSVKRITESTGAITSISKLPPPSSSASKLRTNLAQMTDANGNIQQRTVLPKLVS
AKT1 (human), P31749 [S473D], sequence (P31749 whole entry S473D, looked up): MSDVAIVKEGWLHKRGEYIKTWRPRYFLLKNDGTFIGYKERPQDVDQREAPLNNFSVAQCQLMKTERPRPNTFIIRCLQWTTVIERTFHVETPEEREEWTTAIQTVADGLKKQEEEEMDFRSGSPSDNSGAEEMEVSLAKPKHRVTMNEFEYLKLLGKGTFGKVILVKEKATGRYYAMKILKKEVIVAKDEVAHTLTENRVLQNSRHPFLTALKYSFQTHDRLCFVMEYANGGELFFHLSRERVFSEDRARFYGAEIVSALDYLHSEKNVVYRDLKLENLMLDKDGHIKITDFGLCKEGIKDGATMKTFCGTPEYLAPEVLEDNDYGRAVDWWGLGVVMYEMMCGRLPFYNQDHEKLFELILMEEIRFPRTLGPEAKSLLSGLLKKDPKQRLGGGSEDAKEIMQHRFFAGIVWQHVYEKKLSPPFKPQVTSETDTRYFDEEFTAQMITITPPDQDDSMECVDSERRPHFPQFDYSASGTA
EPHA2 (human), sequence (P29317 whole entry, looked up): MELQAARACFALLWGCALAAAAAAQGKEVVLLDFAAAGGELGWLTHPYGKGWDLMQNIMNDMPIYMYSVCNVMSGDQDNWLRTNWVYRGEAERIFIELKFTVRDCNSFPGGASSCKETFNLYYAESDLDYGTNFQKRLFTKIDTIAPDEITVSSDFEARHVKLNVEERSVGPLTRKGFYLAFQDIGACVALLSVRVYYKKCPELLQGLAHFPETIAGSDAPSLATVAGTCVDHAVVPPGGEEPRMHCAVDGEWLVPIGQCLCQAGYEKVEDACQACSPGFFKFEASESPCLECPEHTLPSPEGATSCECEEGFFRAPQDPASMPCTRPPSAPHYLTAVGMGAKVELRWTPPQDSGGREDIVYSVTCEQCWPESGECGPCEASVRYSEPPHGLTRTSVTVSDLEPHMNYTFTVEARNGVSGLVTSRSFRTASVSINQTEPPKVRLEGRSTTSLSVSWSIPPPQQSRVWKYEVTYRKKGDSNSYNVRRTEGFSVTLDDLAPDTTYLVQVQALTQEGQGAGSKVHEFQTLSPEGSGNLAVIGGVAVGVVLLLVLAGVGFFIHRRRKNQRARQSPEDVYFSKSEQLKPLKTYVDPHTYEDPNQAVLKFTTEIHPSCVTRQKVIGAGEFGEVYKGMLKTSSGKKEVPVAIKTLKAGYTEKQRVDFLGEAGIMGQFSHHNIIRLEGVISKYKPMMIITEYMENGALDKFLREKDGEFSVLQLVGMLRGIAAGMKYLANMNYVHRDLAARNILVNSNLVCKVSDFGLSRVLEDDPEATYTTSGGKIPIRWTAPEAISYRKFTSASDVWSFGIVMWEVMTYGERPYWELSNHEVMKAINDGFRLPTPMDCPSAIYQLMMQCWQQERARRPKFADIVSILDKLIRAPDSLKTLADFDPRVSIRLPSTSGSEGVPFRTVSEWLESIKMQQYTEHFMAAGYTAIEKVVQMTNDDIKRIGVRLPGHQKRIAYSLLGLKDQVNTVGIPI
MAPK11 (human), sequence (Q15759 whole entry, looked up): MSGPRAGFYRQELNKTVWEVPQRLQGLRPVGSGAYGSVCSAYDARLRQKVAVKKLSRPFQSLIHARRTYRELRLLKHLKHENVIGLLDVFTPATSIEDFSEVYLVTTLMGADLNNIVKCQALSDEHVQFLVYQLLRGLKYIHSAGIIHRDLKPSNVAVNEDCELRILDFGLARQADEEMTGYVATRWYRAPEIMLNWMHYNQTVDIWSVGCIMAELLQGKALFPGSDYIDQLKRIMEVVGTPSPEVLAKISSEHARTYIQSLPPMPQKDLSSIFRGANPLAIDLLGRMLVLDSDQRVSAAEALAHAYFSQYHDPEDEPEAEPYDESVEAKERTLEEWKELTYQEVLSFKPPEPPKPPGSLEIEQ
IKBKE (human), sequence (Q14164 whole entry, looked up): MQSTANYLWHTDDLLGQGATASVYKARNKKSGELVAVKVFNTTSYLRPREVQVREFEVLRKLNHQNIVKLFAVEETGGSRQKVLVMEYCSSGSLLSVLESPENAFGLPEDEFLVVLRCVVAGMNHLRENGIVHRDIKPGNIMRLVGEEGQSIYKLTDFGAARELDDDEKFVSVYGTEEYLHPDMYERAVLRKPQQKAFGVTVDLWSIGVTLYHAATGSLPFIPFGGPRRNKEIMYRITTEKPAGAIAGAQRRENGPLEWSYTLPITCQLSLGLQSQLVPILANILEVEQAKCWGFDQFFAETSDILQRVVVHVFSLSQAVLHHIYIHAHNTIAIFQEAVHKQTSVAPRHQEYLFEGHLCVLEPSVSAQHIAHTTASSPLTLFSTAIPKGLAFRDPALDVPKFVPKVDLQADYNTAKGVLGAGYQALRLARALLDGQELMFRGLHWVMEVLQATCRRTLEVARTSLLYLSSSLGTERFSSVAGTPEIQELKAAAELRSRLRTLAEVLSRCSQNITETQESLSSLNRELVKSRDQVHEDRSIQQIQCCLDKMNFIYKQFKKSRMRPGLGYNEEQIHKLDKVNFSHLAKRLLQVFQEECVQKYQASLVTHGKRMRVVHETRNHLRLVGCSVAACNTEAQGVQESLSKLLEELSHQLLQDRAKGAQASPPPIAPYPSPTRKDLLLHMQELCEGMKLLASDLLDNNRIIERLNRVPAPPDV
MAPK13 (human), sequence (O15264 whole entry, looked up): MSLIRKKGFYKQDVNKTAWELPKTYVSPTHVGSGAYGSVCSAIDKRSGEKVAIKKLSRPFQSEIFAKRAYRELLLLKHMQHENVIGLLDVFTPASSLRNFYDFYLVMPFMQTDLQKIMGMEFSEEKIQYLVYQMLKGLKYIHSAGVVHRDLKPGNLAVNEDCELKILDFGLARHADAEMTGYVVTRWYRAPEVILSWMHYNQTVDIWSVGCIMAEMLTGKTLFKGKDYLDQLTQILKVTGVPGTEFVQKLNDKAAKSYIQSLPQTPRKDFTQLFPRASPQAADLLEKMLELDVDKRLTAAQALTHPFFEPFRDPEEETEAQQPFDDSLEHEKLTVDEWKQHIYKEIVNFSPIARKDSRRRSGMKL

O=C(O)c1ccc(-c2c[nH]c3ncc(-c4ccccc4)cc23)cc1C1CCCC1
residual activity (CSNK2A1 (human); compound 0.1 µM): 96% | residual activity (CSNK2A1 (human); compound 10.0 µM): 46% | residual activity (HIPK2 (human); compound 0.1 µM): 70% | residual activity (HIPK2 (human); compound 1.0 µM): 58% | residual activity (HIPK2 (human); compound 10.0 µM): 15% | residual activity (PAK4 (human); compound 0.1 µM): 96% | residual activity (PAK4 (human); compound 1.0 µM): 85% | residual activity (PAK4 (human); compound 10.0 µM): 39% | residual activity (RPS6KA5 KD1 KD2 (human); compound 0.1 µM): 94% | residual activity (RPS6KA5 KD1 KD2 (human); compound 1.0 µM): 103% | residual activity (RPS6KA5 KD1 KD2 (human); compound 10.0 µM): 62% | residual activity (NUAK1 (human); compound 0.1 µM): 45% | residual activity (NUAK1 (human); compound 1.0 µM): 15% | residual activity (NUAK1 (human); compound 10.0 µM): 10% | residual activity (MAP2K6 (human)): 97% | residual activity ([1]; compound 0.1 µM): 104% | residual activity ([1]; compound 1.0 µM): 72% | residual activity ([1]; compound 10.0 µM): 57% | residual activity (IKBKE (human); compound 0.1 µM): 91% | residual activity (IKBKE (human); compound 1.0 µM): 44% | residual activity (IKBKE (human); compound 10.0 µM): 14% | residual activity (DYRK1A (human); compound 0.1 µM): 79% | residual activity (DYRK1A (human); compound 1.0 µM): 47% | residual activity (DYRK1A (human); compound 10.0 µM): 8% | residual activity (DYRK2 (human); compound 0.1 µM): 101% | residual activity (DYRK2 (human); compound 1.0 µM): 20% | residual activity (DYRK2 (human); compound 10.0 µM): 2% | residual activity (MST4 (human); compound 0.1 µM): 81% | residual activity (MST4 (human); compound 1.0 µM): 68% | residual activity (MST4 (human); compound 10.0 µM): 13% | residual activity (BTK (human); compound 0.1 µM): 89% | residual activity (BTK (human); compound 1.0 µM): 96% | residual activity (MAPK14 (human); compound 0.1 µM): 94% | residual activity (MAPK14 (human); compound 1.0 µM): 119% | residual activity (MAPK14 (human); compound 10.0 µM): 106% | residual activity (MAPKAPK5 (human); compound 0.1 µM): 107% | residual activity (MAPKAPK5 (human); compound 1.0 µM): 77% | residual activity (MAPKAPK5 (human); compound 10.0 µM): 73% | residual activity (NEK6 (human); compound 0.1 µM): 104% | residual activity (NEK6 (human); compound 10.0 µM): 107% | residual activity (MAPK13 (human); compound 0.1 µM): 118% | residual activity (MAPK13 (human); compound 1.0 µM): 87% | residual activity (MAPK13 (human); compound 10.0 µM): 62% | residual activity (PAK7 (human); compound 0.1 µM): 110% | residual activity (PAK7 (human); compound 1.0 µM): 88% | residual activity (PAK7 (human); compound 10.0 µM): 38% | residual activity (EEF2K (human); compound 0.1 µM): 120% | residual activity (EEF2K (human); compound 1.0 µM): 110% | residual activity (CaMK1 (human); compound 0.1 µM): 104% | residual activity (CaMK1 (human); compound 1.0 µM): 99% | residual activity (CaMK1 (human); compound 10.0 µM): 80% | residual activity (PRKCZ (human); compound 0.1 µM): 96% | residual activity (PRKCZ (human); compound 1.0 µM): 105% | residual activity (PRKCZ (human); compound 10.0 µM): 87% | residual activity (EPHB3 (human); compound 0.1 µM): 108% | residual activity (EPHB3 (human); compound 10.0 µM): 101% | residual activity (MAPK11 (human); compound 0.1 µM): 109% | residual activity (MAPK11 (human); compound 1.0 µM): 112% | residual activity (MAPK11 (human); compound 10.0 µM): 71% | residual activity (LCK (mouse); compound 0.1 µM): 109% | residual activity (LCK (mouse); compound 1.0 µM): 79% | residual activity (MARK3 (human); compound 0.1 µM): 89% | residual activity (MARK3 (human); compound 1.0 µM): 60% | residual activity (MARK3 (human); compound 10.0 µM): 29% | residual activity (MARK1 (human)): 97% | residual activity (EPHB1 (human)): 94% | residual activity (ERBB4 (human); compound 0.1 µM): 105% | residual activity (ERBB4 (human); compound 1.0 µM): 86% | residual activity (ERBB4 (human); compound 10.0 µM): 71% | residual activity (PAK6 (human); compound 0.1 µM): 102% | residual activity (PAK6 (human); compound 1.0 µM): 103% | residual activity (PAK6 (human); compound 10.0 µM): 61% | residual activity (HIPK3 (human)): 100% | residual activity (TAOK1 (human)): 98% | residual activity (DAPK1 (human)): 87% | residual activity (ROCK2 (rat); compound 0.1 µM): 84% | residual activity (ROCK2 (rat); compound 1.0 µM): 59% | residual activity (ROCK2 (rat); compound 10.0 µM): 33% | residual activity (DYRK3 (human); compound 0.1 µM): 79% | residual activity (DYRK3 (human); compound 1.0 µM): 57% | residual activity (DYRK3 (human); compound 10.0 µM): 17% | residual activity (EPHA2 (human); compound 0.1 µM): 92% | residual activity (EPHA2 (human); compound 1.0 µM): 97% | residual activity (EPHA2 (human); compound 10.0 µM): 85% | residual activity (HIPK1 (human)): 99% | residual activity (MAP3K9 (human); compound 0.1 µM): 87% | residual activity (MAP3K9 (human); compound 1.0 µM): 38% | residual activity (MAP3K9 (human); compound 10.0 µM): 7%
